9 molecules from US20040229936A1, “Treatment of hepatitis C virus infection with sesquiterpene lactones” (priority 2003, published 2004) can be followed below.

Assay [1] deals with HCV RNA replication in Huh-7 cells containing HCV sub-genomic replicons (Ava.5). The assay can be described thus: Inhibition of HCV RNA replication (replicon cells, RT and Q-PCR, normalised to GADPH). The conditions noted are these: for EC50: Hepatitis C virus, 24 h, read-out: EC50 value (effective concentration at which HCV RNA replication was inhibited by 50%).
Experimental: Huh-7 cells containing HCV sub-genomic replicons (Ava.5) were maintained in DMEM supplemented with 10% heat-inactivated FCS in a humidified atmosphere containing 5% of CO2. The medium also contained 1 mg/mL G418 (an aminoglycosidic antibiotic agent obtained from Promega, WI) as a selective pressure for the maintenance of HCV replicon's RNA replication. […] Cells were treated with sesquiterpene lactones and control compounds at various concentrations. Then, cells were harvested after 24 hr of the treatment. Subsequently, total cellular RNA's were extracted and quantified as follows.
Total RNA of cells was extracted using RNeasy Mini Kit (QIAGEN). The concentration of total RNA was measured by absorption at 260 nm. […] RNA was added with RNase-free ddH2O to a final volume of 10.5 μL and denatured for 10 min at 65° C. Reverse transcription (RT) reactions were carried out at 42° C. for 1 hr using Expand-RT (Roche Biochemicals, Mannheim, Germany) in a total volume of 20 μL containing a previously denatured primer-RNA mixture, 1 mM each of deoxynucleotide triphosphates (dNTPs), 50 units reverse transcriptase, and 20 units RNase inhibitor (Promega, Madison, Wis.).
Quantitative PCR (Q-PCR) was carried out by LightCycler-DNA Master using SYBR Green 1 for real-time detection of double-stranded DNA (dsDNA) (Roche Diagnostics GmbH, Mannheim, Germany). The intensity of fluorescence was recorded versus PCR cycle numbers and the relative amounts of HCV RNA were calculated corresponding to the standard curve. The standard curve was derived from five serial dilutions of reference DNA, the corresponding cDNA of HCV RNA, under criteria recommended by the supplier.
The relative copy numbers HCV RNA and a house-keeping gene, glyceraldehyde-3-phosphate dehydrogenase (GADPH), were determined by Q-PCR utilizing the following primer sets:
PCR was performed as followed: (i) denaturing conditions: 95° C., 60 sec; (ii) amplification conditions: ramp to 95° C., 0 sec; 64° C., 10 sec; 72° C., 10 sec. The specificity of an amplification reaction was determined by performing a melting curve analysis with a temperature range from 65° C. to 95° C.
HCV RNA copy numbers were divided by their corresponding GADPH copy numbers in the same sample for normalization. Effect of sesquiterpene lactones on HCV RNA replication was represented by “relative copy number,” which was obtained by comparing HCV RNA copy numbers with sesquiterpene lactones treatment to HCV RNA copy numbers without sesquiterpene lactones treatment. The latter was designated as 100%. All measurements were performed in triplicates to reach statistical significance.
Assay [2] relates to Huh-7 cells containing HCV sub-genomic replicons (Ava.5). The assay is described as follows: Inhibition of cell growth (MTS cell viability / cytotoxicity assay). The conditions noted are these: Hepatitis C virus, read-out: IC50 value (concentration at which cell growth was inhibited by 50%).
Experimental: Huh-7 cells containing HCV sub-genomic replicons (Ava.5) were provided by Apath, LLC. […] Cells were maintained in Dulbecco's modified Eagle's medium (DMEM) supplemented with 10% fetal calf serum (FCS) in a humidified atmosphere containing 5% of CO2.
MTS and PMS, both in powder form, were purchased from Sigma or Promega. MTS was dissolved in PBS (2 mg/mL) and PMS (0.38 mg/mL) was dissolved in ddH2O as stock solutions. […] Prior to the assay, a 2 mL MTS/PMS solution containing MTS and PMS (20:1) was added to the cells with 8 mL of phenol red-free DMEM. The cell culture medium was then aspirated off, washed with PBS, and 100 μL of the MTS/PMS mixture was added into each well. After incubation at room temperature for 2 hr, optical densities of each sample were measured at OD490 with a 96-well microtiter plate reader. Data were obtained with six repeats for each treatment.

As to `CC1=CCCC2(C)OC2C2OC(=O)C(CN3CCCCC3)C2CC1` (centres unmarked) [Compound 47, 4,8-Dimethyl-12-piperidin-1-ylmethyl-3,14-dioxa-tricyclo[9.3.0.02,4]tetradec-7-en-13-one], the EC50 in assay [1] was not above 3000 nM. With `CC1=CCCC2(C)OC2C2OC(=O)C(CN3CCCC3)C2CC1` (centres unmarked) [Compound 46, 4,8-Dimethyl-12-pyrrolidin-1-ylmethyl-3,14-dioxa-tricyclo[9.3.0.02,4]tetradec-7-en-13-one], in assay [1], the EC50 is not above 3000 nM.

Turning to `CC1=CCCC2(C)OC2C2OC(=O)C(CN3CCCC3C(=O)O)C2CC1` (centres unmarked) [Compound 50, 1-(4,8-Dimethyl-13-oxo-3,14-dioxa-tricyclo[9.3.0.02,4]tetradec-7-en-12-ylmethyl)-pyrrolidine-2-carboxylic acid], the IC50 in assay [2] is 8.1 µM. For the same molecule, the EC50 in assay [1] was not above 3000 nM.

In the case of `CC1=CCCC2(C)OC2C2OC(=O)C(CN3CCOCC3)C2CC1` (centres unmarked) [Compound 49, 4,8-Dimethyl-12-morpholin-4-ylmethyl-3,14-dioxa-tricyclo[9.3.0.02,4]tetradec-7-en-13-one], in assay [1], the EC50 is not above 6000 nM. Same read-out and setting: the result for `CC1=CCCC2(C)OC2C2OC(=O)C(CN(C)C)C2CC1` (centres unmarked) [Compound 44, 12-Dimethylaminomethyl-4,8-dimethyl-3,14-dioxa-tricyclo[9.3.0.02,4]tetradec-7-en-13-one] reads not above 3000 nM; that for `CCN(CC)CC1C(=O)OC2C1CCC(C)=CCCC1(C)OC21` (centres unmarked) [Compound 45, 12-Diethylaminomethyl-4,8-dimethyl-3,14-dioxa-tricyclo[9.3.0.02,4]tetradec-7-en-13-one], not above 3000 nM.

Consider IFNα, for which the results for the “inhibition of HCV RNA replication” value in assay [1] (50 IU/1 mL of IFNα alone) and in assay [1] (100 IU/mL of IFNα alone) were 25% and 40%, respectively. As to `CC1=CCCC2(C)OC2C2OC(=O)C(CSCC(N)C(=O)O)C2CC1` (centres unmarked) [Compound 53, 2-Amino-3-(4,8-dimethyl-13-oxo-3,14-dioxa-tricyclo[9.3.0.02,4]tetradec-7-en-12-ylmethylsulfanyl)-propionic acid], the EC50 in assay [1] was not above 6000 nM.

As to `CC1=CCCC2(C)OC2C2OC(=O)C(CN3CCCCCC3)C2CC1` (centres unmarked) [Compound 48, 12-Azepan-1-ylmethyl-4,8-dimethyl-3,14-dioxa-tricyclo[9.3.0.02,4]tetradec-7-en-13-one], the EC50 in assay [1] was not above 3000 nM.
